Measurements published in patent EP3939578A1, “COMPOUNDS FOR TREATMENT OR PREVENTION OF AN INFECTION RESULTING FROM A CORONAVIRUS AND/OR A CORONAVIRUS-INDUCED DISEASE” (Novaremed Ltd., priority 2020, dated 2022).
“Also recorded” adds a separate entry of the source.

Columns and labels:
[1] = Gravimetric Vapour Sorption (GVS); type: physicochemical
Description: Approximately 10 mg of sample was placed into a wire-mesh vapour sorption balance pan and loaded into an 'IgaSorp' vapour sorption balance (Hiden Analytical Instruments). The sample was then dried by maintaining a 0% humidity environment until no further weight change was recorded. Subsequently, the sample was subjected to a ramping profile from 0 - 90 % RH at 10 % RH increments, maintaining the sample at each step until equilibration had been attained (99% step completion). Upon reaching equilibration, the % RH within the apparatus was ramped to the next step and the equilibration procedure repeated. After completion of the sorption cycle, the sample was then dried using the same procedure. The weight change during the sorption/desorption cycles were then monitored, allowing for the hygroscopic nature of the sample to be determined.

[2] = Dog bioavailability tests of polymorphs 1 and 2; type: in vivo; settings: compared with polymorph 1
From the text: The bioavailability of polymorphs 1 and 2 has also been tested and made available in PCT/EP2020/051528 as Example 3 and is incorporated herein by reference.

## C[C@H](O)COC[C@H](Cc1ccc(O)cc1)NC(=O)CCc1ccccc1 [polymorph 1, (S,S)-2-N(3-O-(propan-2-ol)-1-propyl-4-hydroxybenzene)-3-phenylpropylamide]
[1]; GVS, between 70% and 80% RH, hysteresis between adsorption and desorption cycles
  rapid moisture uptake between 70% and 80% RH: 5.6%
[1]; GVS, second adsorption cycle, at an RH of 40%, different form arising after the first cycle
  weight increase in second adsorption cycle: > 2%
[1]; GVS, to 70% RH
  weight increase to 70% RH: ~1.3%

## C[C@H](O)COC[C@H](Cc1ccc(O)cc1)NC(=O)CCc1ccccc1 [polymorph 2, (S,S)-2-N(3-O-(propan-2-ol)-1-propyl-4-hydroxybenzene)-3-phenylpropylamide]
[2]
  bioavailability: higher than for polymorph 1; also recorded: better bioavailability as compared to polymorph 1; also recorded: exceptionally high
[1]; GVS, after two adsorption/desorption cycles, sharp weight loss at 90% RH
  overall weight loss by the end of the two adsorption/desorption cycles: ~1%
[1]; GVS, to 80% RH
  weight gain to 80% RH: 0.6%
[1]; XRPD after two adsorption/desorption cycles
  change of polymorphic form (XRPD) after GVS: no change of polymorphic form
